Assay results: ChEMBL document CHEMBL1201862, “PubChem BioAssay data set” (2004)
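Grown in 96-well plates, cells were treated for 48 hours with each compound at five concentrations. Insufficient inhibition: endpoint recorded as highest concentration tested. GI50 is the concentration that inhibits growth by half.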 Calls of active or inactive are those of the source. Rule as the data show it: active = GI50 up to about 1.1 µM and inactive = higher.

How the values were obtained:
Assay in all cases: growth of human tumour cells (NCI), 48 h
HCT-15 = tested on: HCT-15
HOP-92 = tested on: HOP-92
UACC-62 = tested on: UACC-62
NCI-H522 = tested on: NCI-H522
IGROV-1 = tested on: IGROV-1
KM12 = tested on: KM12
786-0 = tested on: 786-0
CCRF-CEM = tested on: CCRF-CEM
Hs-578T = tested on: Hs-578T
OVCAR-5 = tested on: OVCAR-5
HCC 2998 = tested on: HCC 2998
ACHN = tested on: ACHN
OVCAR-3 = tested on: OVCAR-3
CAKI-1 = tested on: CAKI-1
HL-60 = tested on: HL-60
SN12C = tested on: SN12C
SK-OV-3 = tested on: SK-OV-3
SK-MEL-2 = tested on: SK-MEL-2
U-251 = tested on: U-251
HCT-116 = tested on: HCT-116
RXF 393 = tested on: RXF 393
NCI-H23 = tested on: NCI-H23
EKVX = tested on: EKVX
COLO 205 = tested on: COLO 205
A549 = tested on: A549
OVCAR-4 = tested on: OVCAR-4
SK-MEL-5 = tested on: SK-MEL-5
MDA-MB-231 = tested on: MDA-MB-231
SF-539 = tested on: SF-539
SW-620 = tested on: SW-620
TK-10 = tested on: TK-10
HT-29 = tested on: HT-29
M14 = tested on: M14
PC-3 = tested on: PC-3
UACC-257 = tested on: UACC-257
NCI-H460 = tested on: NCI-H460
LOX IMVI = tested on: LOX IMVI
BT-549 = tested on: BT-549
DU-145 = tested on: DU-145
SF-268 = tested on: SF-268
SF-295 = tested on: SF-295
MCF7 = tested on: MCF7
SNB-19 = tested on: SNB-19
NCI/ADR-RES = tested on: NCI/ADR-RES
NCI-H226 = tested on: NCI-H226
OVCAR-8 = tested on: OVCAR-8
UO-31 = tested on: UO-31
MDA-N = tested on: MDA-N
HOP-62 = tested on: HOP-62
MDA-MB-435 = tested on: MDA-MB-435
MOLT-4 = tested on: MOLT-4
SK-MEL-28 = tested on: SK-MEL-28
SNB-75 = tested on: SNB-75
A498 = tested on: A498
Malme-3M = tested on: Malme-3M
K562 = tested on: K562
RPMI-8226 = tested on: RPMI-8226

SMILES: Cc1ccc(C)c(NC(=O)C(=O)C2C(=O)C3=C(CC2(C)C)Nc2ccccc2S3)c1 (configuration not stated)
- GI50 (HCT-15): > 100 µM
- GI50 (HOP-92): 52.1 µM (inactive)
- GI50 (UACC-62): > 100 µM (inactive)
- GI50 (NCI-H522): > 100 µM (inactive)
- GI50 (IGROV-1): 69.7 µM (inactive)
- GI50 (KM12): > 100 µM (inactive)
- GI50 (786-0): 61.8 µM (inactive)
- GI50 (CCRF-CEM): 70.6 µM (inactive)
- GI50 (Hs-578T): 69.2 µM (inactive)
- GI50 (OVCAR-5): > 100 µM (inactive)
- GI50 (HCC 2998): > 100 µM (inactive)
- GI50 (ACHN): > 100 µM (inactive)
- GI50 (OVCAR-3): 55.6 µM (inactive)
- GI50 (CAKI-1): > 100 µM (inactive)
- GI50 (HL-60): > 100 µM (inactive)
- GI50 (SN12C): > 100 µM (inactive)
- GI50 (SK-OV-3): 60.4 µM (inactive)
- GI50 (SK-MEL-2): > 100 µM (inactive)
- GI50 (U-251): 87.9 µM (inactive)
- GI50 (HCT-116): > 100 µM (inactive)
- GI50 (RXF 393): 60.5 µM (inactive)
- GI50 (NCI-H23): > 100 µM (inactive)
- GI50 (EKVX): 73.5 µM (inactive)
- GI50 (COLO 205): > 100 µM (inactive)
- GI50 (A549): > 100 µM (inactive)
- GI50 (OVCAR-4): > 100 µM (inactive)
- GI50 (SK-MEL-5): 79.8 µM (inactive)
- GI50 (MDA-MB-231): 97.1 µM (inactive)
- GI50 (SF-539): 56.9 µM (inactive)
- GI50 (SW-620): > 100 µM (inactive)
- GI50 (TK-10): > 100 µM (inactive)
- GI50 (HT-29): > 100 µM (inactive)
- GI50 (M14): > 100 µM (inactive)
- GI50 (PC-3): > 100 µM (inactive)
- GI50 (UACC-257): > 100 µM (inactive)
- GI50 (NCI-H460): > 100 µM (inactive)
- GI50 (LOX IMVI): > 100 µM (inactive)
- GI50 (BT-549): > 100 µM (inactive)
- GI50 (DU-145): 93.5 µM (inactive)
- GI50 (SF-268): 62.7 µM (inactive)
- GI50 (SF-295): 58.9 µM (inactive)
- GI50 (MCF7): > 100 µM (inactive)
- GI50 (SNB-19): > 100 µM (inactive)
- GI50 (NCI/ADR-RES): 65.2 µM (inactive)
- GI50 (NCI-H226): 58.1 µM (inactive)
- GI50 (OVCAR-8): 33.8 µM (inactive)
- GI50 (UO-31): 53.8 µM (inactive)
- GI50 (MDA-N): > 100 µM (inactive)
- GI50 (HOP-62): 31.6 µM (inactive)
- GI50 (MDA-MB-435): > 100 µM (inactive)
- GI50 (MOLT-4): 23.9 µM (inactive)
- GI50 (SK-MEL-28): > 100 µM (inactive)
- GI50 (SNB-75): 29.4 µM (inactive)

SMILES: Cc1ccccc1Nc1cn(CCOc2ccccc2)c(=O)n(CCOc2ccccc2)c1=O
- GI50 (HCT-15): > 100 µM
- GI50 (HOP-92): 19 µM (inactive)
- GI50 (UACC-62): > 100 µM (inactive)
- GI50 (NCI-H522): 12.5 µM (inactive)
- GI50 (IGROV-1): > 100 µM (inactive)
- GI50 (KM12): > 100 µM (inactive)
- GI50 (786-0): > 100 µM (inactive)
- GI50 (CCRF-CEM): > 100 µM (inactive)
- GI50 (Hs-578T): > 100 µM (inactive)
- GI50 (OVCAR-5): > 100 µM (inactive)
- GI50 (A498): > 100 µM (inactive)
- GI50 (HCC 2998): > 100 µM (inactive)
- GI50 (ACHN): > 100 µM (inactive)
- GI50 (OVCAR-3): > 100 µM (inactive)
- GI50 (CAKI-1): > 100 µM (inactive)
- GI50 (HL-60): > 100 µM (inactive)
- GI50 (SN12C): > 100 µM (inactive)
- GI50 (Malme-3M): 3.33 µM (inactive)
- GI50 (U-251): > 100 µM (inactive)
- GI50 (HCT-116): > 100 µM (inactive)
- GI50 (RXF 393): > 100 µM (inactive)
- GI50 (NCI-H23): > 100 µM (inactive)
- GI50 (EKVX): > 100 µM (inactive)
- GI50 (COLO 205): 96.2 µM (inactive)
- GI50 (A549): > 100 µM (inactive)
- GI50 (OVCAR-4): 58.7 µM (inactive)
- GI50 (SK-MEL-5): > 100 µM (inactive)
- GI50 (SW-620): > 100 µM (inactive)
- GI50 (HT-29): > 100 µM (inactive)
- GI50 (M14): > 100 µM (inactive)
- GI50 (PC-3): > 100 µM (inactive)
- GI50 (UACC-257): > 100 µM (inactive)
- GI50 (NCI-H460): > 100 µM (inactive)
- GI50 (LOX IMVI): > 100 µM (inactive)
- GI50 (BT-549): > 100 µM (inactive)
- GI50 (DU-145): > 100 µM (inactive)
- GI50 (SF-268): > 100 µM (inactive)
- GI50 (SF-295): > 100 µM (inactive)
- GI50 (MCF7): 90.8 µM (inactive)
- GI50 (SNB-19): > 10 µM (inactive)
- GI50 (NCI/ADR-RES): > 100 µM (inactive)
- GI50 (UO-31): > 100 µM (inactive)
- GI50 (MDA-N): > 100 µM (inactive)
- GI50 (HOP-62): 24.6 µM (inactive)
- GI50 (MDA-MB-435): > 100 µM (inactive)
- GI50 (MOLT-4): > 100 µM (inactive)
- GI50 (SK-MEL-28): > 100 µM (inactive)
- GI50 (K562): > 100 µM (inactive)
- GI50 (RPMI-8226): > 100 µM (inactive)
